Tests used:
U-87 MG = assay: Cytotoxicity against human U87 cells assessed as reduction in cell viability incubated for 24 hrs by CCK8 assay; assay type: functional, cell-based, U-87MG ATCC
Hs 683 = assay: Cytotoxicity against human Hs 683 cells assessed as reduction in cell viability incubated for 24 hrs by CCK8 assay; assay type: functional, cell-based; details: Hs 683, 24 h
GL261 = assay: Cytotoxicity against mouse GL261 cells assessed as reduction in cell viability incubated for 24 hrs by CCK8 assay; assay type: functional, cell-based; details: GL261, 24 h
[1] = Aqueous solubility of compound at up to 80 uM measured after 10 mins by optical microscopic analysis; assay type: physicochemical; details: buffer

With `COc1ccc(NS(=O)(=O)c2ccc(NC(=S)NC(=O)C(C)C)cc2)cc1` the IC50 (U-87 MG) was 56.7 µM, the IC50 (Hs 683) was 53.2 µM and the IC50 (GL261) was 61.3 µM.

`Cc1ccc([C@H](O)CNC(=O)c2cccc(C)c2C)cc1` showed an IC50 (U-87 MG) of 67.3 µM, an IC50 (Hs 683) of 70.3 µM and an IC50 (GL261) of 74.2 µM.

`Cc1ccc(CN2C(=O)[C@](O)(CC(=O)c3ccc4c(c3)OCO4)c3cc(Br)ccc32)cc1` gave an IC50 (U-87 MG) of 15.5 µM, an IC50 (Hs 683) of 18.7 µM and an IC50 (GL261) of 21.3 µM. For the same compound, the solubility [1] was “Insoluble”.

In the case of `CCN(C(=O)[C@H](Cc1ccccc1)NS(=O)(=O)c1cccc2nsnc12)c1ccccc1`, the IC50 (U-87 MG) is reported as 66.3 µM, the IC50 (Hs 683) is reported as 69.8 µM and the IC50 (GL261) is reported as 60.6 µM.

With `O=C(NCCc1ccccc1)c1ccc(N2C[C@@H]3C[C@H](C2)c2cccc(=O)n2C3)c(NS(=O)(=O)c2cccc(Cl)c2)c1` the IC50 (U-87 MG) was 56.2 µM, the IC50 (Hs 683) was 55.3 µM and the IC50 (GL261) was 48.1 µM.

For `CC1Oc2ccc(S(=O)(=O)Nc3ccc(CCC(=O)O)cc3)cc2NC1=O` (stereo not given), the IC50 (U-87 MG) was 47.4 µM, the IC50 (Hs 683) was 41.5 µM and the IC50 (GL261) was 52.5 µM.

With `Cc1ccc(NC(=O)C[C@H]2SC(NC(c3ccc(F)cc3)c3c(O)[nH]c(=O)[nH]c3=O)=NC2=O)cc1C` (stereo not given in full) the IC50 (U-87 MG) was 46.5 µM, the IC50 (Hs 683) was 40.8 µM and the IC50 (GL261) was 47.9 µM.

In the case of `COc1ccc(N2C(=O)C[C@H](C(=O)NC3CCCCC3)[C@H]2c2ccc(F)cc2)cc1`, the IC50 (U-87 MG) is reported as 77.9 µM, the IC50 (Hs 683) is reported as 84.5 µM and the IC50 (GL261) is reported as 90.2 µM.
